Measurements: publication PMC8511295 (European journal of medicinal chemistry, 2021)
Like-named read-outs stand apart in the source and are kept apart here.

What was measured:
[1] = system: recombinant CD4-dependent HIV-1ADA virus in CD4-negative Cf2Th-CCR5 cells; type: cell-based; conditions: escalating concentrations
[2] = system: HIV-1 NL4–3-HXB2-Luc pseudotyped virus expressing Env of the lab-adapted HIV-1HXB-2 (CXCR4); type: cell-based; conditions: TZM-bl cells
[3] = system: control pseudovirus MLV-GP/VSV-G/Luc; test: microbe, parasite or virus in culture; type: cell-based
[4] = system: HIV-1WEAUd15.410.5017 (NIH # 11578), dual-tropic (CCR5/CXCR4) clinical isolate of subtype B; type: cell-based
in vitro = conditions: human
[5] = target: HIV-1 Reverse Transcriptase (RT) (Human immunodeficiency virus type 1 group M subtype B, UniProt P04585); test: Colorimetric Reverse Transcriptase Assay; type: biochemical

| SMILES | antiviral activity against HIV-1HXB-2, in words [2] | further results |
| --- | --- | --- |
| Cc1cc(-c2ccc(C(F)(F)F)cn2)[nH]c1C(=O)NC(CN)c1ncc(CO)s1 (stereo not shown) [NBD-14270] | – | relative virus infectivity (enhancement of infection), in words [1]: did not enhance HIV-1 infectivity |
| Cl.Cl.NC[C@@H](NC(=O)CNCc1ccc(Cl)cc1)c1ncc(CO)s1 [4(fR), N-(2-amino-1-(5-(hydroxymethyl)thiazol-2-yl)ethyl)-2-((4-chlorobenzyl)amino)acetamide dihydrochloride] | None of these derivatives showed any appreciable antiviral activity | – |
| Cc1nc(C(CN)NC(=O)c2cc3cc(Cl)ccc3[nH]2)sc1CO (stereo not shown) [compound 11, N-(2-amino-1-(5-(hydroxymethyl)-4-methylthiazol-2-yl)ethyl)-5-chloro-1H-indole-2-carboxamide] | virtually inactive | – |
| Cl.Cl.NC[C@H](NC(=O)CNCc1ccc(Cl)cc1)c1ncc(CO)s1 [4(fS), N-(2-amino-1-(5-(hydroxymethyl)thiazol-2-yl)ethyl)-2-((4-chlorobenzyl)amino)acetamide dihydrochloride] | None of these derivatives showed any appreciable antiviral activity | – |
| NCC(NC(=O)c1cc2ccc(Cl)cc2[nH]1)c1nc(CO)cs1 (stereo not shown) [compound 12, N-(2-amino-1-(4-(hydroxymethyl)thiazol-2-yl)ethyl)-6-chloro-1H-indole-2-carboxamide] | moderate activity | – |
| Cl.NCCNC(=O)c1ccc(-c2ccc(Cl)c(F)c2)[nH]1 [compound 14, N-(2-aminoethyl)-5-(4-chloro-3-fluorophenyl)-1H-pyrrole-2-carboxamide hydrochloride] | low μM range | – |
| O=C(N[C@H](CC1CCNCC1)c1nc(CO)cs1)c1ccc(-c2ccc(C(F)(F)F)cc2)[nH]1 [18(fR), N-(1-(4-(hydroxymethyl)thiazol-2-yl)-2-(piperidin-4-yl)ethyl)-5-(4-(trifluoromethyl)phenyl)-1H-pyrrole-2-carboxamide] | low antiviral activity | – |
| NC[C@@H](NC(=O)c1ccc(NCC2CCCCC2)cc1)c1ncc(CO)s1 [8(fR), N-(2-amino-1-(5-(hydroxymethyl)thiazol-2-yl)ethyl)-4-((cyclohexylmethyl)amino)benzamide] | poorly active | – |
| Cc1nc(C(CN)NC(=O)c2cc3ccccc3[nH]2)sc1CO (stereo not shown) [compound 10, N-(2-amino-1-(5-(hydroxymethyl)-4-methylthiazol-2-yl)ethyl)-1H-indole-2-carboxamide] | virtually inactive | – |
| NC[C@H](NC(=O)c1ccc(C2CCCCC2)[nH]1)c1ncc(CO)s1 [6(fS), N-(2-amino-1-(5-(hydroxymethyl)thiazol-2-yl)ethyl)-5-cyclohexyl-1H-pyrrole-2-carboxamide] | poorly actives | – |
| NC[C@@H](NC(=O)Cc1ccc(OCC2CCCCC2)cc1)c1ncc(CO)s1 [9(fR), N-(2-amino-1-(5-(hydroxymethyl)thiazol-2-yl)ethyl)-2-(4-(cyclohexylmethoxy)phenyl)acetamide] | no significant antiviral activity | – |
| NC[C@H](NC(=O)c1ccc(NCC2CCCCC2)cc1)c1ncc(CO)s1 [8(fS), N-(2-amino-1-(5-(hydroxymethyl)thiazol-2-yl)ethyl)-4-((cyclohexylmethyl)amino)benzamide] | poorly active | – |
| NC[C@H](NC(=O)c1ccc(OCC2CCCCC2)cc1)c1ncc(CO)s1 [7(fS), N-(2-amino-1-(5-(hydroxymethyl)thiazol-2-yl)ethyl)-4-(cyclohexylmethoxy)benzamide] | poorly active | – |
| NCC(NC(=O)c1ccc(-c2ccc(Cl)cc2)[nH]1)c1nccs1 [13(fR), N-(2-amino-1-(thiazol-2-yl)ethyl)-5-(4-chlorophenyl)-1H-pyrrole-2-carboxamide] | – | activity against control pseudovirus VSV-G, in words [3]: poorly active against VSV-G; antiviral activity against the clinical isolate HIV-1WEAUd15.410.5017, in words [4]: best antiviral activity |
| NC[C@H](NC(=O)Cc1ccc(OCC2CCCCC2)cc1)c1ncc(CO)s1 [9(fS), N-(2-amino-1-(5-(hydroxymethyl)thiazol-2-yl)ethyl)-2-(4-(cyclohexylmethoxy)phenyl)acetamide] | no significant antiviral activity | – |
| O=C(N[C@@H](CC1CCNCC1)c1nc(CO)cs1)c1ccc(-c2ccc(C(F)(F)F)cc2)[nH]1 [18(fS), N-(1-(4-(hydroxymethyl)thiazol-2-yl)-2-(piperidin-4-yl)ethyl)-5-(4-(trifluoromethyl)phenyl)-1H-pyrrole-2-carboxamide] | low antiviral activity | – |
| NCC(NC(=O)c1cc2ccc(Cl)cc2[nH]1)c1nc(CO)cs1 [12(fR), N-(2-amino-1-(4-(hydroxymethyl)thiazol-2-yl)ethyl)-6-chloro-1H-indole-2-carboxamide] | – | activity against control pseudovirus VSV-G, in words [3]: poorly active against VSV-G; IC50 ([3]; Pseudovirus, U87/CD4/CCR5, read-out: IC50 against VSV-G): 15.7 ± 1 µM; CC50 (in vitro): 83 to 84 µM; antiviral activity against the clinical isolate HIV-1WEAUd15.410.5017, in words [4]: best antiviral activity; activity against HIV-1 RT, in words [5]: no activity |
| NCC(NC(=O)c1ccc(-c2ccc(Cl)cc2)[nH]1)c1nccs1 [13(fS), N-(2-amino-1-(thiazol-2-yl)ethyl)-5-(4-chlorophenyl)-1H-pyrrole-2-carboxamide] | – | activity against control pseudovirus VSV-G, in words [3]: poorly active against VSV-G; antiviral activity against the clinical isolate HIV-1WEAUd15.410.5017, in words [4]: best antiviral activity |
| NCC(NC(=O)C(=O)NCc1ccc(Cl)c(F)c1)c1ncc(CO)s1 (stereo not shown) [compound 3, N’-[2-amino-1-[5-(hydroxymethyl)thiazol-2-yl]ethyl]-N-[(4-chloro-3-fluorophenyl)methyl]oxamide] | failed to show any significant antiviral activity | – |
| NCC(NC(=O)c1cc2ccc(Cl)cc2[nH]1)c1nc(CO)cs1 [12(fS), N-(2-amino-1-(4-(hydroxymethyl)thiazol-2-yl)ethyl)-6-chloro-1H-indole-2-carboxamide] | – | activity against control pseudovirus VSV-G, in words [3]: poorly active against VSV-G; IC50 ([3]; read-out: IC50 against VSV-G): 20.5 ± 0.5 µM; antiviral activity against the clinical isolate HIV-1WEAUd15.410.5017, in words [4]: best antiviral activity |
| O=C(NC1(c2nc(CO)cs2)CCNCC1)c1ccc(-c2ccc(C(F)(F)F)cc2)[nH]1 [compound 17, N-(4-(4-(hydroxymethyl)thiazol-2-yl)piperidin-4-yl)-5-(4-(trifluoromethyl)phenyl)-1H-pyrrole-2-carboxamide] | – | antiviral activity against the clinical isolate HIV-1WEAUd15.410.5017, in words [4]: best antiviral activity |
| NC[C@@H](NC(=O)c1ccc(C2CCCCC2)[nH]1)c1ncc(CO)s1 [6(fR), N-(2-amino-1-(5-(hydroxymethyl)thiazol-2-yl)ethyl)-5-cyclohexyl-1H-pyrrole-2-carboxamide] | poorly actives | – |
| Cc1nc(C(CN)NC(=O)NC(=O)c2ccc(Cl)cc2)sc1CO (stereo not shown) [compound 5, N-((2-amino-1-(5-(hydroxymethyl)-4-methylthiazol-2-yl)ethyl)carbamoyl)-4-chlorobenzamide] | failed to show any significant antiviral activity | – |
| CC1(C)CC(NC(=O)C(=O)Nc2ccc(Cl)cc2)CC(C)(C)N1 [NBD-556, reference compound] | – | activity against HIV-1 RT, in words [5]: no activity; relative virus infectivity (enhancement of infection), in words [1]: enhanced the infection of the Cf2Th-CCR5 cells in a dose-dependent manner |
| NC[C@@H](NC(=O)c1ccc(OCC2CCCCC2)cc1)c1ncc(CO)s1 [7(fR), N-(2-amino-1-(5-(hydroxymethyl)thiazol-2-yl)ethyl)-4-(cyclohexylmethoxy)benzamide] | poorly active | – |
